For this assay, the target named is T1, human RAR-β (Homo sapiens, UniProt P10826).
T1 sequence (P10826 1-455): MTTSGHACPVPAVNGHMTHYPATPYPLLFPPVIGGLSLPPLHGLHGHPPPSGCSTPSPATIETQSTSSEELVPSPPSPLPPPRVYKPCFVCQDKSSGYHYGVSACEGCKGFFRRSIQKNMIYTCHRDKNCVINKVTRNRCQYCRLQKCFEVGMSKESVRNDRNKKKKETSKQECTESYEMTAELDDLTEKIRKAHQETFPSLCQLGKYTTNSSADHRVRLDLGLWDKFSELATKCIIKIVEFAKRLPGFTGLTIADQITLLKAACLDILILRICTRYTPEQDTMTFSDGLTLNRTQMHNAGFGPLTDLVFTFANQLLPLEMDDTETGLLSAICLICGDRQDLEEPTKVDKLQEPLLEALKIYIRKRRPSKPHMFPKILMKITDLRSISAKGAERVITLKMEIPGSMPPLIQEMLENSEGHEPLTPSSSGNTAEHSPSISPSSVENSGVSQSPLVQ
The assay can be described thus: Co-transfection assay (luciferase reporter induction in transfected COS-7 cells). In general terms: A reporter such as luciferase makes a cellular process visible.

Description: The following assay is a measure of the in-vitro binding affinity of the given compound with human RAR-β in COS-7 cells. Binding of the compound to RAR-β will induce transcription of luciferase within the cells. This level of transcription can be quantified based on the amount of luminescence emitted after incubation of the cell lysate with luciferin.
COS-7 cells were cultured in Dulbecco Modified Eagle's Medium (DMEM) with 4 mM L-glutamine, 4.5 g/L glucose 1.5 g/L sodium bicarbonate and supplemented with 10% fetal bovine serum. Cells were transfected using the calcium phosphate:DNA co-precipitation method. A 10-cm plate of cells was transfected with 5 μg of luciferase reporter construct, 5 μg of expression vector for β-galactosidase, 1 μg of expression vector for RAR-β, and pUC19 as carrier, to a total of 20 μg.
β-galactosidase (5 μg) was included in each transfection to monitor transfection efficiency. Cells were incubated 6 hours at 37° C. in a CO2 incubator. The cells were re-suspended in fresh media containing 10% serum (96-well plate, 15000 cells per well) with or without compound (in 0.5% DMSO) and the plates were incubated at 37° C. in a CO2 incubator. Lysis buffer (1×) was added to cover the cells and the plates were incubated at ambient temperature for 15 min. Luciferase and β-galactosidase assays were performed 36 hours post-transfection, and the normalized luciferase response was determined as relative light units divided by β-galactosidase activity. Composition of 5× lysis buffer is 125 mM. Tris (pH 7.8) with H3PO4 10 mM trans-1,2 diaminocyclohexane-N,N,N′,N′-tetraaceticacid (CDTA), 10 mM dithiothereitol (DTT), 50% glycerol, 5% triton X-100.

The compound `CC1=C(/C=C/C(C)=C/C=C/C(C)=C/C(=O)O)C(C)(C)CCC1` [ATRA, all-trans-retinoic acid, reference compound] registered a fold induction at 0.001 µM of 9.3, a fold induction at 0.03 µM of 13.7 and a fold induction at 0.1 µM of 19.1.

For `COc1ccc(-c2ccc3cc(B4OC(C)(C)C(C)(C)O4)ccc3c2)cc1C12CC3CC(CC(C3)C1)C2` [Example 9, 2-[6-(3-(1-Adamandyl)-4-methoxyphenyl)-naphthalen-2-yl]-4,4,5,5-tetramethyl[1,3,2]dioxaborolane], the fold induction at 3 µM came to 2 and the fold induction at 40 µM is 6.

`COc1ccc(-c2ccc3cc(B(O)O)ccc3c2)cc1C12CC3CC(CC(C3)C1)C2` [Example 10, 6-[-3-(1-Adamandyl)-4-methoxyphenyl)-2-naphthoboronic acid] gave a fold induction at 3 µM of 2.1 and a fold induction at 10 µM of 3.6.

What is called fold induction is the ratio of treated to control signal. A high value points to a strong induction.

Source of the values: US7589239B2, “Therapeutic agents for the treatment of cancer, metabolic diseases and skin disorders” (Auspex Pharmaceuticals, priority 2005, dated 2009).
